# In patent US20250059196A1 (SHANGHAI HANSOH BIOMEDICAL CO., LTD., priority 2021, published 2025):
# pIC50: −log10 of the molar value.
# How the values were obtained:
# [1] = molecular target: Recombinant human MALT1/MLT protein (Homo sapiens (Human), UniProt Q9UDY8); assay: Inhibitory effect on MALT1 enzyme activity (Ac-LRSR-AMC substrate, fluorescence 460 nm); assay type: biochemical; conditions: 10 nM FL MALT1, Ac-LRSR-AMC substrate, 50 min pre-incubation, 4 h reaction
# Method: Ac-LRSR-AMC was used as the substrate to test the IC50 of the inhibitory activity of compounds on MALT1 enzyme activity at their Km concentration.
# Ac-LRSR-AMC was used as the substrate which was digested by MALT1 to produce products, which produced fluorescence that could be detected at 460 nm. The highest concentration of the compound detected was 1000 nM, 3-fold dilution, a total of 11 concentrations (1000 nM-0.017 nM). The reaction system is 10 nM FL MALT1 protein, […] Ac-LRSR-AMC, 50 mM Tris pH 7.5, 0.6M Citrate, 1 mM DTT, 1 mM EDTA, 0.05% BSA and 1.5% DMSO. The compound and the enzyme were pre-incubated at room temperature for 50 min. The substrate was then added and the reaction was carried out for 4 h.
# The original data (460 nm reading) was calculated according to the following formula to obtain the inhibition rate.
# (§1) Log(inhibitor) vs. response—Variable slope (four parameters) in GraphPad Prism 6 was used to perform fitting equation analysis on compound concentration and corresponding inhibition rate, the curve was fit and compound IC50 value was obtained.
# (§2) The fitting calculation equation is Y=Bottom+(Top−Bottom)/(1+10^((Log IC50−X)*HillSlope))
# Caco-2 cells = assay: Caco-2 bidirectional permeability test
# Method: The purpose of this experiment is to test the bidirectional permeability of the compound through the Caco-2 cell model and evaluate whether the compound is transported by efflux transporters.
# Liquid chromatography-mass spectrometer, centrifuge, vortexer, pipette, 96-well test plate (HTS Transwell Plate), acetonitrile solution containing internal standard, Caco-2 cells (ATCC), Hank's balance solution (HBSS), fluorescent yellow (LY), dimethyl sulfoxide (DMSO).
# 108 μL of transport buffer (HBSS containing 10 μM of the example compound) was added to the administration end of A to B. • b. 300 μL of transport buffer (HBSS containing DMSO) was added to the receiving end of A to B. • c. 300 μL of transport buffer (HBSS containing 10 μM example compound) was added to the administration end of A to B. • d. 108 μL of transport buffer (HBSS containing DMSO) was added to the receiving end of A to B. • e. incubation was performed for 90 min. • d. a sample was taken, processed and detected with mass spectrometry.
# • Instruments: Liquid Chromatography; • Chromatographic column: Waters XSelect HSS T3 2.5 μm (2.1×50 mm); • Mobile phase: Phase A: 0.1% formic acid in pure water; Phase B: 0.1% formic acid in acetonitrile.
# • Instruments: AP16500+liquid chromatography-mass spectrometer; • The ion source is electrospray ionization source (ESI); • The detection method is positive ion detection;
# The scanning method is selected reaction monitoring (MRM).
# [2] = system: OCI-LY3 cell subcutaneous xenograft tumor; assay: Tumor inhibition in OCI-LY3 subcutaneous xenograft NOG mouse model of human diffuse large B-cell lymphoma; assay type: in vivo; conditions: NOG mice, 30 mg, BID × 4 weeks, oral
# Method: The efficacy of test drugs was evaluated in OCI-LY3 mouse subcutaneous tumor model of human diffuse large B-cell lymphoma
# • 1. Animal: NOG mice, female, 6-8 weeks old, weighing 18-22 grams, a total of 65 mice were needed. Provided by Beijing Vital River Laboratory Animal Technology Co., Ltd. or other qualified suppliers. • 2. Cell: Human diffuse large B-cell lymphoma OCI-LY3 cells were cultured in vitro as monolayers and conventional digestion treatment with trypsin-EDTA was carried out twice a week for passage. When the cell confluence was 80%-90% and the number reached the required number, cells were collected, counted, and inoculated. • 3. Grouping for vaccination: Cells (5×10^6 cells+Matrigel/0.2 ml) were inoculated subcutaneously into each mouse. The growth of animals and transplanted tumors were observed regularly. When the tumor grew to a volume of about 150-200 mm^3, the tumor volume of each mouse was calculated, and the mice were divided into random groups according to tumor volume and body weight. The calculation formula of tumor volume was V=0.5a×b^2, wherein a and b represented the long and short diameters of the tumor, respectively. • 4. Administration: According to the grouping results, the test drug was started to be administered (administration method: oral administration; Administration volume: 10 mL/kg; Administration frequency: 2 times/day; Administration cycle: 28 days; Vehicle: 10% solutol HS15-0.25% CMC-Na). Tumors were measured and weighed twice a week after starting administration of test drugs. • 5. Animals were euthanized after the experiment. • 6. Data processing: The tumor inhibitory efficacy of the compound was evaluated by TGI (%) or relative tumor proliferation rate T/C (%). TGI (%) reflects the tumor growth inhibition rate. Calculation of TGI (%): TGI (%)=[(1−(average tumor volume at the end of administration in a treatment group−average tumor volume at the beginning of administration in the treatment group))/(average tumor volume at the end of administration in the solvent control group−average tumor volume at the beginning of administration in the solvent control group)]×100%.
# Relative tumor proliferation rate T/C (%): The calculation formulas are as follows: T/C %=TRTV/CRTV×100% (TRTV: RTV of treatment group; CRTV: RTV of negative control group). The relative tumor volume (RTV) was calculated based on the results of tumor measurement. The calculation formula is RTV=Vt/V0, where V0 is the average tumor volume measured at grouping for administration (i.e. d0), Vt is the average tumor volume at a certain measurement, and TRTV and CRTV take the data on the same day.
# After the experiment, the tumor weight was measured, and the T/Cweight percentage was calculated. Tweight and Cweight represented the tumor weight of the administration group and the vehicle control group, respectively.
# Remarks: The data in parentheses indicate the tumor volume corresponding to the vehicle group (i.e., the control group) at the corresponding time in this example.
# [3] = molecular target: MALT1 protease activity in TMD8 cells (substrate BCL-10) (Homo sapiens (Human), UniProt Q9UDY8); assay: Intracellular MALT1 protease activity detection (BCL-10 ELISA in TMD8 cells); assay type: cell-based; conditions: undigested BCL-10 by ELISA, 30 min compound then 2 h stimulation cocktail, read-out: Bcl10 TMD8 IC50
# Sequence of MALT1 protease activity in TMD8 cells (substrate BCL-10) (Q9UDY8 whole entry): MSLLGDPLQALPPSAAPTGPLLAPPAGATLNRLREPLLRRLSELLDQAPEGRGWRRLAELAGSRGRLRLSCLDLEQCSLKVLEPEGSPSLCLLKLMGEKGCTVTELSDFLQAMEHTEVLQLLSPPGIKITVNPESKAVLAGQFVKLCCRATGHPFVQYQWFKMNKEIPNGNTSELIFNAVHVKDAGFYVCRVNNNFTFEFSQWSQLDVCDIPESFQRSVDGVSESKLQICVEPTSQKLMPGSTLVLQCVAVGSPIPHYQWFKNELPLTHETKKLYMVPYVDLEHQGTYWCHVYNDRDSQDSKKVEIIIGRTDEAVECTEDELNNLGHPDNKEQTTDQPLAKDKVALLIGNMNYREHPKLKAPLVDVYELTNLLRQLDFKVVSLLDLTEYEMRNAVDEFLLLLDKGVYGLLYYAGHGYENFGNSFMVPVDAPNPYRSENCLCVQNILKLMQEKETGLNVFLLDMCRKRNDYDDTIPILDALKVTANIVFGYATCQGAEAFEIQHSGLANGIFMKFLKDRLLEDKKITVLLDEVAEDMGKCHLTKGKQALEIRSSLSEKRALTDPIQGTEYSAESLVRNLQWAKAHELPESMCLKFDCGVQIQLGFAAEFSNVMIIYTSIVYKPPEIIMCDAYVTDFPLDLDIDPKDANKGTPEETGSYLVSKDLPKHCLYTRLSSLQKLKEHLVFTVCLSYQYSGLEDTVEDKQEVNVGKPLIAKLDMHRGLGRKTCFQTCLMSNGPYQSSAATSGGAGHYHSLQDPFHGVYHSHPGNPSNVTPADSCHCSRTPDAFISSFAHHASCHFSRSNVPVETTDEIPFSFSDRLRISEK
# Method: By detecting the digestion level of the substrate BCL-10 by MALT1 in TMD8 cells, the inhibitory effect of the compound on MALT1 protease activity in the cellular environment was tested.
# The ELISA sandwich method was used to detect the content of undigested BCL-10 protein in cells and determine the inhibitory effect of compounds on intracellular MALT1 protease activity. The highest concentration of the compound detected was 10000 nM, 3-fold dilution, a total of 9 concentrations (10000 nM-1.5 nM). Cells were plated at an appropriate density. Compounds of corresponding concentrations were first added for action for 30 min, and then eBioscience cell stimulation cocktail was added to stimulate the cells for 2 h. Cell lysate was then collected. The cell lysate was added to the assay plate previously coated with recombinant BCL-10 antibody (Abcam, #Ab33905) and incubated at 4° C. overnight. The next day, BCL-10 detection antibody (Santacruz, #Sc-5273HRP) was added and incubated for 2 h, TMB substrate was used for color development for about 30 min, then the color development was terminated, and a microplate reader was used for detection.
# 2) Curve fitting: Log(inhibitor) vs. response—Variable slope (four parameters) in GraphPad Prism 6 was used to perform fitting equation analysis on compound concentration and corresponding inhibition rate, the curve was fit and compound IC50 value was obtained.
# as §2
# [4] = Pharmacokinetics of oral administration in Balb/C mice; assay type: in vivo; conditions: 30 mg/kg, P.O., plasma
# Method: Balb/C mice were used as test animals to study the pharmacokinetic behavior of the compound in the plasma of mice after oral administration at a dose of 30 mg/kg.
# 3 Balb/C mice (3/example), male, from Shanghai Jiesijie Experimental Animal Co., Ltd., animal production license number (SCXK (Shanghai) 2013-0006 N0.311620400001794).
# 3 Balb/C mice, male; p.o. respectively at a dose of 30 mg/kg and an administration volume of 10 mL/kg after the mice were fasted overnight.
# Before and after administration of mice, 0.1 mL of blood was collected from the orbit at 0, 0.5, 1, 2, 4, 6, 8 and 24 h, and placed in EDTA-K2 test tubes, which was centrifuged at 6000 rpm at 4° C. for 6 min to separate plasma which was stored at −80° C.
# • 1) 160 μL of acetonitrile was added to 40 μL of plasma sample for precipitation, and same was mixed and centrifuged at 3500×g for 5 to 20 min. • 2) 100 μL of the treated supernatant solution was taken and subjected to LC/MS/MS to analyze the concentrations of the test compounds.
# • Liquid phase conditions: Shimadzu LC-20AD pump • Mass spectrometry conditions: AB Sciex API 4000 mass spectrometer • Chromatographic column: Phenomenex Gemiu 5 um C18 50×4.6 mm • Mobile phase: liquid A is 0.1% aqueous formic acid solution, liquid B is acetonitrile • flow rate: 0.8 mL/min • Elution time: 0-4.0 min, the eluent is as follows:
# The main pharmacokinetic parameters were calculated using WinNonlin 8.2.
# OCI-Ly3 cells = assay: Inhibition of proliferation of OCI-Ly3 cells (CellTiter-Glo); assay type: cell-based, human; conditions: 96 h incubation, read-out: Inhibition test of proliferation of OCI-Ly3 cells IC50
# Method: The compound's inhibitory effect on the proliferation of TMD8 and OCI-Ly3 cells was evaluated through cell proliferation inhibition experiments.
# The compound's inhibitory effect on the proliferation of TMD8 and OCI-Ly3 cells was detected by the CellTiter-Glo method. The highest concentration of the compound detected was 1000 nM, 3-fold dilution, a total of 9 concentrations (1000 nM-0.15 nM). After the cells were plated at an appropriate density, compounds were added the next day and incubated for 96 h before detection using the CellTiter-Glo Luminescent detection kit.
# as §1, §2
# Sequence of Recombinant human MALT1/MLT protein (Q9UDY8 whole entry): as above
smiles,measurement,setting,value
O=C(Nc1ccnc(C(F)(F)F)c1)c1cnn(-c2ccc3c4c(cccc24)C(=O)N3)c1C(F)(F)F [Example 27],pIC50,[1],6.79
same,Papp A − B,"Caco-2 cells; Caco-2, 10 μM, 90 min, A to B",4.21 10^−6 cm · s^−1
same,Papp B − A,"Caco-2 cells; Caco-2, 10 μM, 90 min, B to A",11.52 10^−6 cm · s^−1
same,Papp(B − A)/Papp(A − B),Caco-2 cells; Caco-2 efflux ratio,2.74
same,TGI (%) Day 28,[2],93.04%
same,Weight Day 28,[2],20.34 ± 0.78
same,ΔT/ΔC(%) Day 28,[2],19.83%
same,Tumor volume (Mean ± SD) Day 28,[2]; vehicle group 1274 ± 82,230 ± 50 (1274 ± 82) mm^3
same,pIC50,[3],7.29
same,AUC0-∞,[4],"1,584,433 ng/mL*hr"
same,AUC(0-t),[4],"1,130,746 ng/mL*h"
same,Cmax,[4],"71,267 ng/mL"
same,MRT,[4],18.7 h
same,T1/2,[4],13.1 h
same,pIC50,OCI-Ly3 cells,6.09
